Measurements reported in patent US12509441B2, “Compounds used as kinase inhibitors and application thereof” (TYK MEDICINES (ZHENGZHOU), INC., priority 2020, dated 2025).
Read-outs that look alike come from different tables or passages of the source.

What was measured:
Format in all cases: cell-based
[1] = molecular target: T1, Ba/F3-FL-EGFR-V769-D770 ins ASV (Homo sapiens, UniProt P00533, cells depend on it, form not given); assay: Cell proliferation inhibitory activity test (CellTiter-Glo), EGFR exon 20 insertion mutation; settings: Ba/F3-FL-EGFR exon 20 insertion lines, see Table 6
T1 construct: rows headed: activity relative to the activity of TAK-788; Ba/F3-FL-EGFR

[2] = molecular target: T2, Ba/F3-FL-EGFR-V769-D770 ins ASV (Homo sapiens, UniProt P00533, DUP767-769, cells depend on it); assay: as above; settings: 72 h, read-out: Ba/F3-FL-EGFR IC50 (nM) V769-D770ins ASV
T2 construct: Ba/F3-FL-EGFR IC50 (nM) V769-D770ins ASV; other: 72 h; class symbols; Ba/F3-FL-EGFR IC50 (nM) V769-D770ins ASV

[3] = molecular target: Ba/F3-FL-EGFR-D77-N771 ins SVD (Homo sapiens, UniProt P00533, DUP768-770, cells depend on it); assay: as above; settings: 72 h, read-out: Ba/F3-FL-EGFR IC50 (nM) D77-N771ins SVD
[4] = molecular target: Ba/F3-FL-EGFR-H773-V774 ins NPH (Homo sapiens, UniProt P00533, DUP771-773, cells depend on it); assay: as above; settings: 72 h, read-out: Ba/F3-FL-EGFR IC50 (nM) H773-V774ins NPH
[5] = molecular target: Ba/F3-FL-EGFR-A763-Y764 ins FQEA (Homo sapiens, UniProt P00533, INS763FQEA, cells depend on it); assay: as above; settings: 72 h, read-out: Ba/F3-FL-EGFR IC50 (nM) A763-Y764ins FQEA
[6] = test system: H-1975 (EGFRL858R/T790M) cells; assay: Cell proliferation inhibitory activity test (WST-8) of related EGFR mutations
PC9 (EGFRdel19) cells = assay: as above
[7] = molecular target: Ba/F3 (EGFRdel19/L858R/C797S) (Homo sapiens, UniProt P00533, C797S/L858R, cells depend on it, form not given); assay: as above; settings: 72 h, cell viability; read-out: IC 50 (nM) Ba/F3 (EGFRdel19/L858/797s)

activity relative to the activity of TAK-788 [1]: around 2 times | GI50 ([2]; class symbols): < 5 nM | GI50 [2]: 1.9 nM | GI50 ([3]; class symbols): < 5 nM | GI50 [3]: 2.8 nM | GI50 ([4]; class symbols): < 5 nM | GI50 [4]: 2.8 nM | GI50 ([5]; class symbols): < 5 nM | GI50 [5]: 1.8 nM | IC50 (PC9 (EGFRdel19) cells; 72 h, cell viability, read-out: IC 50 (nM) PC-9 (EGFRdel19)): 6.61 nM
Structure (SMILES): C=CC(=O)Nc1cc(Nc2ncc(-c3nnc(C)o3)c(-c3cn(C)c4ccccc34)n2)c(OC)cc1N(C)C1[C@H]2CN(C)C[C@@H]12 (some centres unmarked) [Example 18]
cytostatic activity compared with osimertinib and TAK788 ([6]; H-1975 (EGFRL858/T790M)): not much different from osimertinib activity | IC50 ([6]; Homo sapiens, NCI-H1975, 72 h, cell viability, read-out: IC 50 (nM) H-1975 (EGFRL858/T790M)): 91.2 nM | cytostatic activity compared with osimertinib and TAK788 (PC9 (EGFRdel19) cells; C-9 (EGFRdel19)): not much different from osimertinib activity | GI50 [7]: 3980 nM
